By Ki is commonly meant a dissociation constant, usually derived from enzyme kinetics or from competition with a known ligand. In general, inhibition refers to the drop in the measured response relative to a control, in per cent. Usually pKb stands for −log10 of the Kb, conventionally taken in molar units. What is called pKi is −log10 of the Ki, conventionally taken in molar units. In general, inhibition in vivo refers to how much of the control response was suppressed.

The target of data set [1] is T1, Type-1 angiotensin II receptor (Oryctolagus cuniculus, UniProt P34976).
T1 sequence (P34976 whole entry): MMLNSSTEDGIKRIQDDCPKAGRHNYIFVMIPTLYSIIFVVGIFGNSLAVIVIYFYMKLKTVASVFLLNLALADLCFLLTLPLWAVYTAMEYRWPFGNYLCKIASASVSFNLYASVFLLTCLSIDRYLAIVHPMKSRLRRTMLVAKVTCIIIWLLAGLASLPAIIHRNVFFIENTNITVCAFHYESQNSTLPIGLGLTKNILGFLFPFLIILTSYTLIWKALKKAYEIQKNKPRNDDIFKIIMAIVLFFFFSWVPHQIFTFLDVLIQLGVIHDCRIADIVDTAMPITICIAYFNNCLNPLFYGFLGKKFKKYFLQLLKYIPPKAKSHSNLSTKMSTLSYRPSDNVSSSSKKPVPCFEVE
The experiment in a line: Binding affinity to angiotensin AT1 receptor in rabbit aortic rings.

Data set [2] has as its system Rattus norvegicus. Kind of data set: Cardiotoxicity in left renal artery-ligated hypertensive rat model assessed as reduction of heart rate at 0.3 to 3 mg/kg, administered intra-arterially for 6 days. Further details: dose 0.3-3 mg/kg; scale not given: the % may be the effect or the level left. Conditions: in vivo, other, 144 h. The class given is toxicity, organism-based.

Data set [3] concerns Rattus norvegicus. Kind of data set: Cardiotoxicity in left renal artery-ligated hypertensive rat model assessed as reduction of heart rate at 1 to 10 mg/kg, po for 6 days. The class given is toxicity, organism-based. Further details: dose 1-10 mg/kg, route oral; scale not given: the % may be the effect or the level left. Conditions: in vivo, 144 h.
Data set [4] has as its target T2, Type-1 angiotensin II receptor (Homo sapiens, UniProt P30556).
T2 sequence (P30556 whole entry): T1 sequence (P34976 whole entry) with M2I, A49V, V254I, V270I, H272R, K311R, S349T, V353A
The experiment in a line: Displacement of [3H]-angiotensin 2 from angiotensin AT1 receptor.

For data set [5], the target named is T2, Type-1 angiotensin II receptor. Kind of data set: Binding affinity to angiotensin AT1 receptor.
The target in data set [6] is T3, Type-1 angiotensin II receptor (Homo sapiens) (UniProt P30556).
T3 sequence (whole entry): T1 sequence (P34976 whole entry) with M2I, A49V, V254I, V270I, H272R, K311R, S349T, V353A
Kind of data set: Ratio of compound Ki to losartan Ki for angiotensin AT1 receptor.

Data set [7] addresses T3, Type-1 angiotensin II receptor (Homo sapiens). The experiment in a line: (§1) Antagonist activity at angiotensin AT1 receptor. The class given is functional.
Data set [8] addresses T4, Type-2 angiotensin II receptor (Homo sapiens, UniProt P50052).
T4 sequence (P50052 whole entry): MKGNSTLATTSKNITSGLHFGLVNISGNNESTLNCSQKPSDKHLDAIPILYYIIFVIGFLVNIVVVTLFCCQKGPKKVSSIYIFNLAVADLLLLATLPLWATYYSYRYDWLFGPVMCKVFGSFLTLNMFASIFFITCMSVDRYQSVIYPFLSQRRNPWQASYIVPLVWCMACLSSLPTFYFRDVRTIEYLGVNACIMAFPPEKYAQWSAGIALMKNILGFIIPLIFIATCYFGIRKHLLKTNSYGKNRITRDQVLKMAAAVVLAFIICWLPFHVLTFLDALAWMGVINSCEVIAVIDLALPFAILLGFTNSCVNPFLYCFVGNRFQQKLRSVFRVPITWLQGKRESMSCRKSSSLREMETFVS
Kind of data set: (§2) Binding affinity to angiotensin AT2 receptor.

In data set [9] the target is T5, Type-2 angiotensin II receptor (Homo sapiens) (UniProt P50052).
T5 sequence (whole entry): T4 sequence (P50052 whole entry)
Described as §2. Conditions: concentration not given here.

The test system of data set [10] is Rattus norvegicus. Kind of data set: Inhibition of angiotensin 2-induced response in iv dosed normotensive rat. The class given is functional.
Data set [11] has as its target T2, Type-1 angiotensin II receptor. The experiment in a line: Displacement of [3H]-angiotensin 2 from angiotensin AT1 receptor in human PLC-PRF5 cells. The class given is cell-based.
The target is the same in data set [12]. The experiment in a line: Antagonist activity at angiotensin AT1 receptor in human PLC-PRF5 cells. Format: functional, cell-based.
The target of data set [13] is T6, Type-1 angiotensin II receptor (Oryctolagus cuniculus) (UniProt P34976).
T6 sequence (whole entry): T1 sequence (P34976 whole entry)
Kind of data set: Antagonist activity at angiotensin AT1 receptor in rabbit aorta. The class given is functional, tissue-based.

Data set [14] is described as follows: Displacement of [3H]-angiotensin 2 from angiotensin AT1 receptor in rat liver membranes. Format: cell membranes, Membrane. On the technique in general: Displacement assays read how much labelled ligand stays bound in the presence of the test substance.
Data set [15] deals with T7, Type-1 angiotensin II receptor (Cavia porcellus, UniProt Q9WV26).
T7 sequence (Q9WV26 whole entry): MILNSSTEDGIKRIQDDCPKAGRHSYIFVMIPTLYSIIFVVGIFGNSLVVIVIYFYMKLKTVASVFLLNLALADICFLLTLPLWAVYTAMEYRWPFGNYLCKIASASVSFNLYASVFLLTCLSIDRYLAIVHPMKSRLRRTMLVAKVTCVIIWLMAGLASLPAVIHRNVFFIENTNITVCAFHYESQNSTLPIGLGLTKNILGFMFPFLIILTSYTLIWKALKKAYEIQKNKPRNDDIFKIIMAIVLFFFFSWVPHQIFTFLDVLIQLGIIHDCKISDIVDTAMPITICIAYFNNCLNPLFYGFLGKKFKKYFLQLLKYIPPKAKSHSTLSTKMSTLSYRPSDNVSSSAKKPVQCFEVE
Kind of data set: Binding affinity to angiotensin AT1 receptor in guinea pig adrenal cortex membranes. The class given is cell membranes, Membrane.

Data set [16] concerns Rattus norvegicus. Kind of data set: Antihypertensive activity in iv dosed conscious rat. The class given is functional.
Data set [17] has as its system Rattus norvegicus. The experiment in a line: Antihypertensive activity in iv dosed anesthetized ganglionic blocked rat model assessed as reduction of angiotensin 2-induced response. The class given is functional, organism-based.
Data set [18] in a line: Displacement of [125I]-angiotensin 2 from angiotensin AT1 receptor in rat liver membranes. Format: cell membranes, Membrane.
The target of data set [19] is T1, Type-1 angiotensin II receptor. The experiment in a line: Antagonist activity at angiotensin AT1 receptor in rabbit adrenal cortex assessed as inhibition of angiotensin 2-induced […] response. The class given is functional, tissue-based.
Data set [20] has the same target. Kind of data set: Antagonist activity at angiotensin AT1 receptor in rabbit aortic strip assessed as inhibition of angiotensin 2-induced contractile response. Conditions: read-out: pA2 (converted). The class given is functional.
For data set [21], the species on record is Rattus norvegicus. Kind of data set: Displacement of radiolabeled angiotensin2 from angiotensin AT1 receptor in rat adrenal cortex membranes. Conditions: Membrane, concentration not given here. Format: cell membranes.
Data set [22] relates to Rattus norvegicus. The experiment in a line: Inhibition of angiotensin 2-induced response in intraduodenally dosed pithed normotensive rat. Format: functional.
Data set [23] concerns the target T2, Type-1 angiotensin II receptor. The data set is described as §1. Format: functional.
Data set [24] concerns Rattus norvegicus. Kind of data set: Antihypertensive activity in conscious normotensive rat assessed as inhibition of angiotensin 2-induced pressor response at 1 mg/kg, iv after 6 hrs. Format: functional.

Numbering of substitutions follows the chain as printed. Where only a bound is given, the exact number is not on record here.

Take `CCc1nc2c(C)cc(C)nc2n1Cc1ccc2c(c1)CCN2C(c1ccccc1)c1nnn[nH]1` (stereo unspecified): in data set [1], the IC50 is 1 nM.
Turning to `CCCCc1nc(Cl)c(C(=O)O)n1Cc1ccc2oc(-c3ccccc3-c3nn[nH]n3)c(Br)c2c1` [ZOLASARTAN], the Activity in data set [2] and in data set [3] was less than 15% in each case. Besides, the Ki in data set [4] was 2 nM.
`CCOc1nc2cccc(C(=O)O)c2n1Cc1ccc(-c2ccccc2-c2nnn[nH]2)cc1`: the IC50 in data set [5] turned out to be 110 nM. In addition, in data set [6], the Ratio Ki was 10. Also, the pD2 in data set [7] was found to be 9.97.
For `CCc1nc2c(C)cc(C)nc2n1Cc1ccc(-c2ccsc2-c2nn[nH]n2)cc1`, the IC50 in data set [8] stood at 2.3 nM. The inhibition in data set [9] came out at 90%.
`CCCCc1ncc(/C=C(\Cc2cccs2)C(=O)O)n1Cc1ccc(C(=O)O)cc1` [EPROSARTAN] returned an ID60 in [10] of 0.08 mg/kg.
In [11], `CCCCN1CC2(CN1Cc1ccc(-c3ccccc3-c3nnn[nH]3)cc1)C(=O)CCC2=O` came in with a Ki of 25 nM. Moreover, the IC50 in data set [12] was 22 nM.
With `CCc1nc(C2CC2)c(C(N)=O)n1Cc1ccc2oc(-c3ccccc3NS(=O)(=O)C(F)(F)F)c(Br)c2c1`, in [13], the pKb turned out to be 9. For the same compound, the pKi in data set [14] was found to be 9.3.
As to `CCc1cc(Oc2ccc(-c3ccccc3-c3nnn[nH]3)cc2)c2ncccc2n1`, the IC50 in data set [15] is 24 nM. The ED50 in data set [16] turned out to be 0.86 mg/kg.
With `CCCc1nc(-n2cccc2C(=O)C(F)(F)F)c(C(=O)O)n1Cc1ccc(-c2ccccc2-c2nn[nH]n2)cc1`, the IC50 in [17] was 6.2 mg/kg; in data set [18] it was 0.8 nM.
For `CCOC(=O)/C=C1\N(Cc2ccc(-c3ccccc3-c3nn[nH]n3)cc2)C(=O)CC1(CC)CC`, in data set [19], the IC50 was 100 nM. Further, the Kb in data set [20] is 12.6 nM.
For the compound `CCCc1nc(C)n(CCO)c(=O)c1Cc1ccc(-c2ccccc2-c2nnn[nH]2)cc1`, the inhibition in data set [21] is 60%.
As to `CCCc1cc(O)c(C)c(=O)n1Cc1ccc(-c2ccccc2-c2nn[nH]n2)cc1`, the ED50 in data set [10] (Rattus norvegicus, iv, read-out: ID50 (the source's name)) worked out at 0.02 mg/kg.
Consider `CC1CC(=O)NN=C1c1ccc2nc(C3CC3)n(Cc3ccc(-c4ccccc4-c4nn[nH]n4)cc3)c2c1` (stereo unspecified), for which the “inhibition (INH)” value in [22] was found to be 80%. In [23], this compound came in with an IC50 of 1.8 nM.
Turning to `CCCCc1nn(-c2ccccc2C(F)(F)F)c(=O)n1Cc1ccc(-c2ccccc2-c2nn[nH]n2)cc1`, the inhibition in vivo at 1 mg/kg in [24] is 70%.
With `Cc1cc(Sc2ccc(-c3ccccc3-c3nn[nH]n3)cc2)c2ccccc2n1`, in data set [15], the IC50 is 370 nM.

Values taken from ChEMBL document CHEMBL1667742, “Angiotensin II receptor type 1 (AT1) selective nonpeptidic antagonists--a perspective” (Bioorg Med Chem, 2010).
